The text below walks through data of ChEMBL document CHEMBL1641428, “Inhibition of the β-carbonic anhydrase from Streptococcus pneumoniae by inorganic anions and small molecules: Toward innovative drug design of antiinfectives?” (Bioorg Med Chem, 2011).

Assay [1] addresses Carbonic anhydrase 1 (Homo sapiens, UniProt P00915). Briefly: Inhibition of human carbonic anhydrase 1 after 15 mins by stopped flow CO2 hydration assay.
Assay [2] addresses Carbonic anhydrase 2 (Homo sapiens, UniProt P00918). The assay can be described thus: Inhibition of human carbonic anhydrase 2 after 15 mins by stopped flow CO2 hydration assay.

Carbonic anhydrase 1, sequence (P00915 whole entry): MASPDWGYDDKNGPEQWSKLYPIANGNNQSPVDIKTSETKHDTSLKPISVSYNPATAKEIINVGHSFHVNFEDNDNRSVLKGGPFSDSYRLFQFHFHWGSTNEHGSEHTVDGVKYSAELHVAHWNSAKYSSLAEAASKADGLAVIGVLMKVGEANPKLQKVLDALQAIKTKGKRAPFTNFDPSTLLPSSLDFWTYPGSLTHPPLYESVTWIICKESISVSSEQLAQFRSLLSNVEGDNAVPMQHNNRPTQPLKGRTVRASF

Regarding `O=S(=O)(O)ONOS(=O)(=O)O` [SODIUM IMINODISULFATE], the Ki in assay [1] came to 310 nM; in assay [2] it was 760 nM.
